Reference: US10968225B2, “Compounds and compositions for the treatment of cystic fibrosis” (Fondazione Istituto Italiano Di Tecnologia, priority 2017, dated 2021)
Where a name gives a salt, the structure may show the parent alone.

Molecular target: T1, mutant CFTR (Homo sapiens, UniProt P13569, DEL508-508)
T1 construct: expressed in transfected cells
Test: Fluorescence (HS-YFP) assay for CFTR activity, corrector assay
Type: cell-based
Conditions: CFBE41o- and FRT cells with stable expression of mutant CFTR, read-out: activity (EC50)

T1 sequence (P13569 with tags, fused parts or gaps DEL508-508): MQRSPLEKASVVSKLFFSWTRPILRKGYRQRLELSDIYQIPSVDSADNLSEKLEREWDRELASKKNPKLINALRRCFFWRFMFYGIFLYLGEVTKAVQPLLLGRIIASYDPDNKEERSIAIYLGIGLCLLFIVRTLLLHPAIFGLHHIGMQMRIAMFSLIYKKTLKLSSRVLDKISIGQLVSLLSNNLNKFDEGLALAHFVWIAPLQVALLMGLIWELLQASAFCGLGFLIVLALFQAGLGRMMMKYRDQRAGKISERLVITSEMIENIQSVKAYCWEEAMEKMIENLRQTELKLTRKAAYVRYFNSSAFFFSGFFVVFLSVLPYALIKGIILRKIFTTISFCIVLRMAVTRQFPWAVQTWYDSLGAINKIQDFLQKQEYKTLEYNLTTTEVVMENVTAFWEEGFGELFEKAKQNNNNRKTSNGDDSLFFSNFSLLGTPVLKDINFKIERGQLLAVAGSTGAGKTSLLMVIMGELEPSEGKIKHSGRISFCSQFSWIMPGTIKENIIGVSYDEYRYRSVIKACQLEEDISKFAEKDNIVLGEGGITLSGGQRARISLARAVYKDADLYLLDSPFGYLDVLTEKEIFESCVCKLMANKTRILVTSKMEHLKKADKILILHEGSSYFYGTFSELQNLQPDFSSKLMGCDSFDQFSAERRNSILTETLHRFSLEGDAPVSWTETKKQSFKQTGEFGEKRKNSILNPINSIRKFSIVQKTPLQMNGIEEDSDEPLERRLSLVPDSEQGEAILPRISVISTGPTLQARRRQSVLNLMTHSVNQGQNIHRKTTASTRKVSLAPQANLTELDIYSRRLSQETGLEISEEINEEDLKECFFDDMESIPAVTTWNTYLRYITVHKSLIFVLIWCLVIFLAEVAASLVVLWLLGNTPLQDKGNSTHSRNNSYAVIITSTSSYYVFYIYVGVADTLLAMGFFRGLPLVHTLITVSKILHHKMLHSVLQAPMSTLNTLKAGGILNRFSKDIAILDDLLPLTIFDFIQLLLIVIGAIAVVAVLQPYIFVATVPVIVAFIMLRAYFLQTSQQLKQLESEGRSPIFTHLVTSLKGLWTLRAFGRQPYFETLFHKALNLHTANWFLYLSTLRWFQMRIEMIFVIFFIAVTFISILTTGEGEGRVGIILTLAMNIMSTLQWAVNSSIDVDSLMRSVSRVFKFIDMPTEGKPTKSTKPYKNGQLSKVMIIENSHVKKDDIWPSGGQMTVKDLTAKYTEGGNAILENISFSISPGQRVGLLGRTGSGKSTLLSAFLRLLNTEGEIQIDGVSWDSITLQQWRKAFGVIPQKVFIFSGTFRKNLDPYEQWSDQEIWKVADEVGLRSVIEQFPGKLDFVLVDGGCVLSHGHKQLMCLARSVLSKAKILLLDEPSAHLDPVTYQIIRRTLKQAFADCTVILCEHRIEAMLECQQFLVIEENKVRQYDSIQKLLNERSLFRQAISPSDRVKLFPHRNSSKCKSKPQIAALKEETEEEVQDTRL

Row | SMILES | EC50 [µM]
1 | Cc1nc2ccc(N(C)C(=O)c3cccc(-n4nc(C(F)(F)F)c5c4C(Oc4ccc(C(=O)O)cc4)CCC5)c3)cc2o1 (stereo not shown) [Compound 157, 4-[[1-[3-[Methyl-(2-methyl-1,3-benzoxazol-6-yl)carbamoyl]phenyl]-3-(trifluoromethyl)-4,5,6,7-tetrahydroindazol-7-yl]oxy]benzoic acid] | < 1
2 | CC(C)c1nn(-c2cccc(C(=O)N(C)c3ccc4c(c3)OCO4)c2)c2c1CCCC2 [Compound 133, N-(1,3-Benzodioxol-5-yl)-3-(3-isopropyl-4,5,6,7-tetrahydroindazol-1-yl)-N-methyl-benzamide] | < 1
3 | CN(C(=O)c1cccc(-n2nc(C(F)(F)F)c3c2C(Oc2ccc(C(N)=O)cc2)CCC3)c1)c1ccc2c(c1)OC(F)(F)O2 (stereo not shown) [Compound 162, 3-[7-(4-Carbamoylphenoxy)-3-(trifluoromethyl)-4,5,6,7-tetrahydroindazol-1-yl]-N-(2,2-difluoro-1,3-benzodioxol-5-yl)-N-methyl-benzamide] | < 1
4 | CN(C(=O)c1cccc(-n2nc(C(F)(F)F)c3c2C(Oc2ncc(C(=O)O)cn2)COC3)c1)c1ccc2c(c1)OCC2 (single isomer, unassigned) [Compound 298, (R) or (S)-2-[[1-[3-[2,3-dihydrobenzofuran-6-yl(methyl)carbamoyl]phenyl]-3-(trifluoromethyl)-6,7-dihydro-4H-pyrano[4,3-c]pyrazol-7-yl]oxy]pyrimidine-5-carboxylic acid] | < 1
5 | COC(=O)c1ccccc1S(=O)(=O)N1CCc2c(c(C(F)(F)F)nn2-c2cccc(C(=O)N(C)c3ccc4c(c3)OCO4)c2)C1 [Compound 060, Methyl 2-[[1-[3-[1,3-benzodioxol-5-yl(methyl)carbamoyl]phenyl]-3-(trifluoromethyl)-6,7-dihydro-4H-pyrazolo[4,3-c]pyridin-5-yl]sulfonyl]benzoate] | < 1
6 | Cc1nn(CCC(=O)OC(C)(C)C)c(C)c1S(=O)(=O)N1CCc2c(c(C(F)(F)F)nn2-c2cccc(C(=O)N(C)c3ccc4c(c3)OCO4)c2)C1 [Compound 082, tert-Butyl 3-[4-[[1-[3-[1,3-benzodioxol-5-yl(methyl)carbamoyl]phenyl]-3-(trifluoromethyl)-6,7-dihydro-4H-pyrazolo[4,3-c]pyridin-5-yl]sulfonyl]-3,5-dimethyl-pyrazol-1-yl]propanoate] | < 1
7 | CN(C(=O)c1cccc(-n2nc(C(F)(F)F)c3c2CCN(S(=O)(=O)c2ccccc2C(=O)O)C3)c1)c1ccc2c(c1)OCO2 [Compound 062, 2-[[1-[3-[1,3-Benzodioxol-5-yl(methyl)carbamoyl]phenyl]-3-(trifluoromethyl)-6,7-dihydro-4H-pyrazolo[4,3-c]pyridin-5-yl]sulfonyl]benzoic acid] | > 2
8 | CN(C(=O)c1cccc(-n2nc(C(F)(F)F)c3c2C(Oc2ccc(C(=O)O)cc2)CCC3)c1)c1ccnc(OC(F)F)c1 (single isomer, unassigned) [Compound 288, (R) or (S)-4-[[1-[3-[[2-(Difluoromethoxy)-4-pyridyl]-methyl-carbamoyl]phenyl]-3-(trifluoromethyl)-4,5,6,7-tetrahydroindazol-7-yl]oxy]benzoic acid] | < 1
9 | CN(C(=O)c1cccc(-n2nc(C(F)(F)F)c3c2C(Oc2ccc(C(=O)O)cc2)COC3)c1)c1ccc2c(c1)OC(F)(F)O2 (single isomer, unassigned) [Compound 206, (S) or (R)-4-[[1-[3-[(2,2-Difluoro-1,3-benzodioxol-5-yl)-methyl-carbamoyl]phenyl]-3-(trifluoromethyl)-6,7-dihydro-4H-pyrano[4,3-c]pyrazol-7-yl]oxy]benzoic acid] | < 1
10 | COCCS(=O)(=O)N1CCc2c(c(C(F)(F)F)nn2-c2cccc(C(=O)N(C)c3ccc4c(c3)OCO4)c2)C1 [Compound 068, N-(1,3-benzodioxol-5-yl)-3-[5-(2-methoxyethylsulfonyl)-3-(trifluoromethyl)-6,7-dihydro-4H-pyrazolo[4,3-c]pyridin-1-yl]-N-methyl-benzamide] | < 1
11 | CN(C(=O)c1cccc(-n2nc(C(F)(F)F)c3c2C(Oc2ccc(C(=O)O)cc2)COC3)c1)c1ccc2c(c1)OC(F)(F)O2 (single isomer, unassigned) [Compound 205, (R) or (S)-4-[[1-[3-[(2,2-Difluoro-1,3-benzodioxol-5-yl)-methyl-carbamoyl]phenyl]-3-(trifluoromethyl)-6,7-dihydro-4H-pyrano[4,3-c]pyrazol-7-yl]oxy]benzoic acid] | < 1
12 | CN(C(=O)c1cccc(-n2nc(C(F)(F)F)c3c2C(Oc2ccc(C(=O)O)cc2)CCC3)c1)c1cnc(OC(F)F)nc1 (racemic) [Compound 219, 4-[[1-[3-[[2-(Difluoromethoxy)pyrimidin-5-yl]-methyl-carbamoyl]phenyl]-3-(trifluoromethyl)-4,5,6,7-tetrahydroindazol-7-yl]oxy]benzoic acid] | 1 to 2
13 | Cc1noc(C)c1S(=O)(=O)N1CCc2c(c(C(F)(F)F)nn2-c2cccc(C(=O)N(C)c3ccc4c(c3)OCO4)c2)C1 [Compound 067, N-(1,3-benzodioxol-5-yl)-3-[5-(3,5-dimethylisoxazol-4-yl)sulfonyl-3-(trifluoromethyl)-6,7-dihydro-4H-pyrazolo[4,3-c]pyridin-1-yl]-N-methyl-benzamide] | < 1
14 | Cc1n[nH]c(C)c1S(=O)(=O)N1CCc2c(c(C(F)(F)F)nn2-c2cccc(C(=O)N(C)c3ccc4c(c3)OCO4)c2)C1 [Compound 069, N-(1,3-Benzodioxol-5-yl)-3-[5-[(3,5-dimethyl-4H-pyrazol-4-yl)sulfonyl]-3-(trifluoromethyl)-6,7-dihydro-4H-pyrazolo[4,3-c]pyridin-1-yl]-N-methyl-benzamide] | < 1
15 | CN(C(=O)c1cccc(-n2nc(C(F)(F)F)c3c2C(Oc2ccc(C(=O)O)cc2)COC3)c1)c1ccc2c(c1)OC(F)(F)O2 (stereo not shown) [Compound 202, 4-[[1-[3-[(2,2-Difluoro-1,3-benzodioxol-5-yl)-methyl-carbamoyl]phenyl]-3-(trifluoromethyl)-6,7-dihydro-4H-pyrano[4,3-c]pyrazol-7-yl]oxy]benzoic acid] | < 1
16 | Cc1noc(C)c1S(=O)(=O)N1[C@H]2CC[C@@H]1c1c(C(F)(F)F)nn(-c3cccc(C(=O)N(C)c4ccc5c(c4)OCO5)c3)c1C2 (single isomer, unassigned) [Compound 129, (4R,7S)- or (4S,7R)—N-(Benzo[d][1,3]dioxol-5-yl)-3-(9-((3,5-dimethylisoxazol-4-yl)sulfonyl)-3-(trifluoromethyl)-5,6,7,8-tetrahydro-4,7-epiminocyclohepta[c]pyrazol-1(4H)-yl)-N-methylbenzamide] | < 1
17 | CN(C(=O)c1cccc(-n2nc(C(F)(F)F)c3c2C(Oc2cc(C(=O)O)ccn2)CCC3)c1)c1ccc2c(c1)OC(F)(F)O2 (stereo not shown) [Compound 182, 2-[[1-[3-[(2,2-Difluoro-1,3-benzodioxol-5-yl)-methyl-carbamoyl]phenyl]-3-(trifluoromethyl)-4,5,6,7-tetrahydroindazol-7-yl]oxy]pyridine-4-carboxylic acid] | < 1
18 | Cc1nc2ccc(N(C)C(=O)c3cccc(-n4nc(C(F)(F)F)c5c4CCNC5)c3)cc2o1 [Compound 030, N-Methyl-N-(2-methyl-1,3-benzoxazol-6-yl)-3-[3-(trifluoromethyl)-4,5,6,7-tetrahydropyrazolo[4,3-c]pyridin-1-yl]benzamide hydrochloride] | 1 to 2
19 | CN(C(=O)c1cccc(-n2nc(C(F)(F)F)c3c2CCN(C(=O)c2ccccc2)C3)c1)c1ccc2c(c1)OCO2 [Compound 008, N-(1,3-Benzodioxol-5-yl)-3-[5-benzoyl-3-(trifluoromethyl)-6,7-dihydro-4H-pyrazolo[4,3-c]pyridin-1-yl]-N-methyl-benzamide] | < 1
20 | Cc1nc2ncc(N(C)C(=O)c3cccc(-n4nc(C(F)(F)F)c5c4C(Oc4ccc(C(=O)O)cc4)CCC5)c3)cc2o1 (single isomer, unassigned) [Compound 286, (R) or (S)-4-[[1-[3-[Methyl-(2-methyloxazolo[4,5-b]pyridin-6-yl)carbamoyl]phenyl]-3-(trifluoromethyl)-4,5,6,7-tetrahydroindazol-7-yl]oxy]benzoic acid] | 1 to 2
21 | CN(C(=O)c1cccc(-n2nc(C(F)(F)F)c3c2C(Oc2cccc(C(=O)O)c2)CCC3)c1)c1ccc2c(c1)OC(F)(F)O2 (stereo not shown) [Compound 170, 3-[[1-[3-[(2,2-Difluoro-1,3-benzodioxol-5-yl)-methyl-carbamoyl]phenyl]-3-(trifluoromethyl)-4,5,6,7-tetrahydroindazol-7-yl]oxy]benzoic acid] | < 1
22 | CN(C(=O)c1cccc(-n2nc(C(F)(F)F)c3c2C(Oc2ccc(C(=O)O)cc2)COC3)c1)c1ccc2c(c1)OCC2 (racemic) [Compound 265, 4-[[1-[3-[2,3-Dihydrobenzofuran-6-yl(methyl)carbamoyl]phenyl]-3-(trifluoromethyl)-6,7-dihydro-4H-pyrano[4,3-c]pyrazol-7-yl]oxy]benzoic acid] | < 1
23 | CN(C(=O)c1cccc(-n2nc(C(F)(F)F)c3c2C(Oc2ccc(C(=O)O)cc2)CCC3)c1)c1cnc(OC2CC2)nc1 (racemic) [Compound 313, 4-[[1-[3-[[2-(Cyclopropoxy)pyrimidin-5-yl]-methyl-carbamoyl]phenyl]-3-(trifluoromethyl)-4,5,6,7-tetrahydroindazol-7-yl]oxy]benzoic acid] | 1 to 2
24 | CN(C(=O)c1cccc(-n2nc(C(F)(F)F)c3c2CCN(C(=O)c2ccc(C(=O)O)cc2)C3)c1)c1ccc2c(c1)OCO2 [Compound 044, 4-[1-[3-[1,3-Benzodioxol-5-yl(methyl)carbamoyl]phenyl]-3-(trifluoromethyl)-6,7-dihydro-4H-pyrazolo[4,3-c]pyridine-5-carbonyl]benzoic acid] | > 2
25 | CN(C(=O)c1cccc(-n2nc(C(F)(F)F)c3c2CCN(Cc2ccc(C(=O)O)cc2)C3)c1)c1ccc2c(c1)OCO2 [Compound 026, 4-[[1-[3-[1,3-Benzodioxol-5-yl(methyl)carbamoyl]phenyl]-3-(trifluoromethyl)-6,7-dihydro-4H-pyrazolo[4,3-c]pyridin-5-yl]methyl]benzoic acid] | < 1
